Measured values reported in ChEMBL document CHEMBL1201862, “PubChem BioAssay data set” (2004).
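Step 1: Grow cells in 96-well plates. Step 2: Expose to compound for 48 hours at 5 concentrations. Step 3: Interpolate endpoints linearly; if unreached, use highest concentration. GI50 = concentration required for 50% inhibition of growth.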 Active and inactive are the calls of the source. Rule as the data show it: active = GI50 up to about 1.1 µM and inactive = higher.

Legend:
Test in all cases: NCI tumour cell line growth inhibition, 48 h
CAKI-1 = tested on: CAKI-1
HCT-116 = tested on: HCT-116
HCT-15 = tested on: HCT-15
HL-60 = tested on: HL-60
IGROV-1 = tested on: IGROV-1
Malme-3M = tested on: Malme-3M
NCI-H226 = tested on: NCI-H226
NCI-H522 = tested on: NCI-H522
OVCAR-5 = tested on: OVCAR-5
PC-3 = tested on: PC-3
RXF 393 = tested on: RXF 393
SF-268 = tested on: SF-268
SK-MEL-2 = tested on: SK-MEL-2
SK-MEL-5 = tested on: SK-MEL-5
SK-OV-3 = tested on: SK-OV-3
SNB-19 = tested on: SNB-19
SNB-75 = tested on: SNB-75
SR = tested on: SR
UO-31 = tested on: UO-31
TK-10 = tested on: TK-10

Row | Structure (SMILES) | GI50 (CAKI-1) | GI50 (HCT-116) | GI50 (HCT-15) | GI50 (HL-60) | GI50 (IGROV-1) | GI50 (Malme-3M) | GI50 (NCI-H226) | GI50 (NCI-H522) | GI50 (OVCAR-5) | GI50 (PC-3) | GI50 (RXF 393) | GI50 (SF-268) | GI50 (SK-MEL-2) | GI50 (SK-MEL-5) | GI50 (SK-OV-3) | GI50 (SNB-19) | GI50 (SNB-75) | GI50 (SR) | GI50 (UO-31) | GI50 (TK-10)
1 | COc1cc([C@@]23OC[C@@H]4[C@@H](OC[C@@H]42)c2cc4c(cc23)OCO4)cc(OC)c1OC | < 0.0157 µM (active) | < 0.01 µM (active) | < 0.01 µM | < 0.01 µM (active) | < 0.01 µM (active) | 0.0838 µM (active) | < 0.01 µM (active) | < 0.01 µM (active) | > 48.2 µM (inactive) | < 0.01 µM (active) | 0.873 µM (active) | 0.0851 µM (active) | < 0.01 µM (active) | < 0.01 µM (active) | < 0.01 µM (active) | < 0.01 µM (active) | < 0.01 µM (active) | < 0.01 µM (active) | < 0.01 µM (active) | –
2 | COP(=O)(OC)/C(=C\C1=CN(C(c2ccccc2)(c2ccccc2)c2ccccc2)CN1)NC=O | 16.6 µM (inactive) | 15.6 µM (inactive) | 16.6 µM | 18.9 µM (inactive) | 20.6 µM (inactive) | – | 21.2 µM (inactive) | 17 µM (inactive) | 17.8 µM (inactive) | 6.44 µM (inactive) | – | – | 15.9 µM (inactive) | 15.9 µM (inactive) | 15.9 µM (inactive) | 20.1 µM (inactive) | 20.2 µM (inactive) | 14.2 µM (inactive) | 15 µM (inactive) | 21.2 µM (inactive)
3 | CCNC(=O)Nc1cccc(NC(=O)NCC)n1 | 75.2 µM (inactive) | > 100 µM (inactive) | – | 34.1 µM (inactive) | > 100 µM (inactive) | > 100 µM (inactive) | > 100 µM (inactive) | > 100 µM (inactive) | > 100 µM (inactive) | 59.3 µM (inactive) | > 100 µM (inactive) | > 100 µM (inactive) | – | > 100 µM (inactive) | > 100 µM (inactive) | > 100 µM (inactive) | 24.5 µM (inactive) | 51.4 µM (inactive) | 43.8 µM (inactive) | 50.2 µM (inactive)
4 | COc1ccc(C2=N/C(=C\c3ccccc3)C(=O)O2)cc1 | – | – | 52.1 µM | 12.2 µM (inactive) | > 100 µM (inactive) | – | 28.5 µM (inactive) | – | > 100 µM (inactive) | > 100 µM (inactive) | > 100 µM (inactive) | > 100 µM (inactive) | > 100 µM (inactive) | – | > 100 µM (inactive) | 75.7 µM (inactive) | 45.2 µM (inactive) | 17.3 µM (inactive) | – | > 100 µM (inactive)
5 | COc1cc2c(cc1OC)CC1c3cc(OC)c(OC)cc3CCN1CC2 (centres undefined) | > 100 µM (inactive) | 26.3 µM (inactive) | > 100 µM | 10.6 µM (inactive) | 52.8 µM (inactive) | – | 19.6 µM (inactive) | > 100 µM (inactive) | > 100 µM (inactive) | > 100 µM (inactive) | 83.6 µM (inactive) | 42.1 µM (inactive) | > 100 µM (inactive) | 30.8 µM (inactive) | > 100 µM (inactive) | 0.49 µM (active) | > 100 µM (inactive) | > 100 µM (inactive) | 0.199 µM (active) | > 100 µM (inactive)
6 | Cc1ccc2nc(-c3ccc(C(C)(C)C)cc3)oc(=O)c2c1 | 19.4 µM (inactive) | 17 µM (inactive) | 16.4 µM | 16.6 µM (inactive) | 23.1 µM (inactive) | 21.6 µM (inactive) | – | 11.5 µM (inactive) | 28.8 µM (inactive) | 20.7 µM (inactive) | 36.5 µM (inactive) | 24.5 µM (inactive) | 26.7 µM (inactive) | 14.3 µM (inactive) | 22.9 µM (inactive) | 25.2 µM (inactive) | 14.2 µM (inactive) | 21.2 µM (inactive) | 26.6 µM (inactive) | 39.7 µM (inactive)
7 | CSC(=S)OC1C(CO[Si](C)(C)C(C)(C)C)OC2OC(C)(C)OC21 (centres undefined) | 31.6 µM (inactive) | 18.5 µM (inactive) | 18.4 µM | – | 18.3 µM (inactive) | 14.8 µM (inactive) | 14.5 µM (inactive) | 15.8 µM (inactive) | 21.3 µM (inactive) | 15.8 µM (inactive) | 20.6 µM (inactive) | 15.2 µM (inactive) | 15 µM (inactive) | 16.8 µM (inactive) | 20.2 µM (inactive) | 21 µM (inactive) | > 100 µM (inactive) | 13.7 µM (inactive) | 17.7 µM (inactive) | 20.5 µM (inactive)
8 | O=C1Oc2ccccc2N/C1=C/C(=O)c1ccc([N+](=O)[O-])cc1 | > 100 µM (inactive) | > 100 µM (inactive) | > 100 µM | – | > 100 µM (inactive) | > 100 µM (inactive) | > 100 µM (inactive) | 23 µM (inactive) | > 100 µM (inactive) | 80.7 µM (inactive) | > 100 µM (inactive) | > 100 µM (inactive) | > 100 µM (inactive) | > 100 µM (inactive) | > 100 µM (inactive) | > 100 µM (inactive) | > 100 µM (inactive) | > 100 µM (inactive) | > 100 µM (inactive) | > 100 µM (inactive)
